Measurements as given in paper PMC4138103 (PLoS ONE, 2014).
“And” between values parts separate entries of the source, which are not always exact repeats. Equal entries are not always repeated. Where two headings read alike, the source gives them in different places.

Tested on: Sprague-Dawley rats
Experiment: Serum thyroid hormones (FT3, FT4, TSH)
Type: in vivo, Rattus norvegicus
Conditions: for Emax: Rattus norvegicus; for TSH / fT3 / fT4: group mean
Experimental: Serum free triiodothyronine (FT3), free thyroxine (FT4) and thyroid stimulating hormone (TSH) were measured by Elecsys 2010 immunochemistry analyzer using Roche FT3, FT4 and TSH reagents (all from Roche Diagnostics GmbH, Mannheim, Germany). The test principle is electrochemiluminescence immunoassay (ECLIA).
Data were also analyzed using the BMD method, which is based on dose-response modeling of the full data set using a nested family of exponential and Hill models. The analyses were done on data of males and females combined, using sex as a covariate. […] In that case, different Critical Effect Doses (CEDs) and CEDs at the lowest bound of the confidence interval (CED-L) were generated for each sex. If no difference between sexes is detected, a CED and CED-Ls for the combined data is generated. However, this was also done if the curve fits are close, and separate analyses for males and females were then performed manually. CEDs and CED-Ls were calculated at the predefined Critical Effect Size (CES) of 5% (EFSA standard) or 10%.

[1] = F, CES 5%, model E2, adipose tissue concentration based
[2] = F, CES 5%, model E2, adipose tissue concentration based, half min value added to zeros
[3] = F, CES 10%, model E2, adipose tissue concentration based
[4] = F, CES 10%, model E2, adipose tissue concentration based, half min value added to zeros
[5] = M, CES 5%, model E4, adipose tissue concentration based
[6] = M, CES 5%, model E4, adipose tissue concentration based, half min value added to zeros
[7] = M, CES 10%, model E4, adipose tissue concentration based
[8] = M, CES 10%, model E4, adipose tissue concentration based, half min value added to zeros
[9] = females, CES 5%, total dose based
[10] = females, CES 5%, total dose based, half min value added to zeros
[11] = females, CES 10%, total dose based
[12] = females, CES 10%, total dose based, half min value added to zeros
[13] = females, adipose tissue concentration based
[14] = females, total dose 10 mg/kg bw
[15] = females, total dose 30 mg/kg bw
[16] = females, total dose 100 mg/kg bw
[17] = females, total dose 300 mg/kg bw
[18] = females, total dose 1000 mg/kg bw
[19] = females, total dose 1700 mg/kg bw
[20] = males, CES 5%, total dose based
[21] = males, CES 5%, total dose based, half min value added to zeros
[22] = males, CES 10%, total dose based
[23] = males, CES 10%, total dose based, half min value added to zeros
[24] = males, adipose tissue concentration based
[25] = males, total dose 1000 mg/kg bw
[26] = males, total dose 1700 mg/kg bw

SMILES: Clc1cc(Cl)c(-c2cc(Cl)c(Cl)c(Cl)c2Cl)cc1Cl [PCB 180, 2,2′,3′,4,4′,5,5′-heptachlorobiphenyl]
- CED, Serum free T3 (S-fT3) [1]: 2280 µg/g lipid
- CED, Serum free T4 (S-fT4) [1]: 821 µg/g lipid
- CED-L, Serum free T3 (S-fT3) [1]: 1496 µg/g lipid
- CED-L, Serum free T4 (S-fT4) [1]: 683 µg/g lipid
- CED, Serum TSH [2]: 206 µg/g lipid
- CED-L, Serum TSH [2]: 126 µg/g lipid
- CED, Serum free T3 (S-fT3) [3]: 4680 µg/g lipid
- CED, Serum free T4 (S-fT4) [3]: 1690 µg/g lipid
- CED-L, Serum free T3 (S-fT3) [3]: 3072 µg/g lipid
- CED-L, Serum free T4 (S-fT4) [3]: 1402 µg/g lipid
- CED, Serum TSH [4]: 402 µg/g lipid
- CED-L, Serum TSH [4]: 246 µg/g lipid
- CED, Serum free T3 (S-fT3) [5]: 428 µg/g lipid
- CED, Serum free T4 (S-fT4) [5]: 158 µg/g lipid
- CED-L, Serum free T3 (S-fT3) [5]: 196 µg/g lipid
- CED-L, Serum free T4 (S-fT4) [5]: 117 µg/g lipid
- CED, Serum TSH [6]: 0.29 µg/g lipid
- CED-L, Serum TSH [6]: 0.04 µg/g lipid
- CED, Serum free T3 (S-fT3) [7]: 976 µg/g lipid
- CED, Serum free T4 (S-fT4) [7]: 328 µg/g lipid
- CED-L, Serum free T3 (S-fT3) [7]: 449 µg/g lipid
- CED-L, Serum free T4 (S-fT4) [7]: 243 µg/g lipid
- CED, Serum TSH [8]: 0.58 µg/g lipid
- CED-L, Serum TSH [8]: 0.09 µg/g lipid
- Emax (F, model E2, controls vs high dose according to the fitted model, read-out: Maximum response, Serum free T3 (S-fT3)): -22.5%
- Emax (females, controls vs high dose, fitted model, read-out: Serum free T3 (S-fT3), Maximum response): -21.8%
- Emax (males, controls vs high dose, fitted model, read-out: Serum free T3 (S-fT3), Maximum response): -26%
- Emax (read-out: Maximum response, Serum free T4 (S-fT4), F, model E2, controls vs high dose according to the fitted model): -50.7%
- Emax (read-out: Maximum response, Serum free T4 (S-fT4), M, model E4, controls vs high dose according to the fitted model): -67.2%
- Emax (read-out: Serum free T4 (S-fT4), Maximum response, females, controls vs high dose, fitted model): -49.4%
- Emax (read-out: Serum free T4 (S-fT4), Maximum response, males, controls vs high dose, fitted model): -66.7%
- Emax (model E4, controls vs high dose according to the fitted model, read-out: Maximum response, Serum free T3 (S-fT3)): -25%
- fT3, Dose response (females): D, T
- fT4, Dose response (females): D, T
- Serum free T3 (S-fT3), CED [9]: 354 mg/kg bw
- Serum free T3 (S-fT3), CED-L [9]: 233 mg/kg bw
- Serum free T4 (S-fT4), CED [9]: 128 mg/kg bw
- Serum free T4 (S-fT4), CED-L [9]: 106.6 mg/kg bw
- Serum TSH, CED [10]: 32.5 mg/kg bw
- Serum TSH, CED-L [10]: 19.9 mg/kg bw
- Serum free T3 (S-fT3), CED [11]: 727 mg/kg bw
- Serum free T3 (S-fT3), CED-L [11]: 479 mg/kg bw
- Serum free T4 (S-fT4), CED [11]: 263 mg/kg bw
- Serum free T4 (S-fT4), CED-L [11]: 219 mg/kg bw
- Serum TSH, CED [12]: 63.5 mg/kg bw
- Serum TSH, CED-L [12]: 38.8 mg/kg bw
- Serum free T3, CED [13]: 2280 µg/g lipid
- Serum free T4, CED [13]: 821 µg/g lipid
- TSH (females, total dose 3 mg/kg bw): 0.047 µIU/ml
- fT3 (females, total dose 3 mg/kg bw): 5.72 pmol/L
- fT4 (females, total dose 3 mg/kg bw): 22.2 pmol/L
- TSH [14]: 0.000136 µIU/ml
- fT3 [14]: 5.10 pmol/L
- fT4 [14]: 19.1 pmol/L
- TSH [15]: 0.00543 µIU/ml
- fT3 [15]: 6.17 pmol/L
- fT4 [15]: 23.4 pmol/L
- TSH [16]: 0.011 µIU/ml
- fT3 [16]: 6.20 pmol/L
- fT4 [16]: 22.4 pmol/L
- TSH [17]: 0.021 µIU/ml
- fT3 [17]: 5.68 pmol/L
- fT4 [17]: 18.0 pmol/L
- TSH [18]: 0.011 µIU/ml
- fT3 [18]: 5.16 pmol/L
- fT4 [18]: 15.3 pmol/L
- TSH [19]: 0.066 µIU/ml
- fT3 [19]: 4.70 pmol/L
- fT4 [19]: 11.1 pmol/L
- Increased serum TSH, CED-L (males): 0.04 µg/g lipid
- TSH, Dose response (males): D, T
- fT3, Dose response (males): D, T
- fT4, Dose response (males): D, T
- Serum free T3 (S-fT3), CED [20]: 290 mg/kg bw
- Serum free T3 (S-fT3), CED-L [20]: 218 mg/kg bw
- Serum free T4 (S-fT4), CED [20]: 38.1 mg/kg bw
- Serum free T4 (S-fT4), CED-L [20]: 26.8 mg/kg bw
- Serum TSH, CED [21]: 0.07 mg/kg bw and 0.0747 mg/kg bw
- Serum TSH, CED-L [21]: 0.0139 mg/kg bw
- Serum free T3 (S-fT3), CED [22]: 596 mg/kg bw
- Serum free T3 (S-fT3), CED-L [22]: 448 mg/kg bw
- Serum free T4 (S-fT4), CED [22]: 79.4 mg/kg bw
- Serum free T4 (S-fT4), CED-L [22]: 56.0 mg/kg bw
- Serum TSH, CED [23]: 0.149 mg/kg bw
- Serum TSH, CED-L [23]: 0.0278 mg/kg bw
- Serum TSH, CED [24]: 0.29 µg/g lipid
- Serum free T3, CED [24]: 428 µg/g lipid
- Serum free T4, CED [24]: 158 µg/g lipid
- Serum thyroxine, CED-L [24]: 117000 ng/g lipid
- TSH (males, total dose 3 mg/kg bw): 0.021 µIU/ml
- fT3 (males, total dose 3 mg/kg bw): 5.74 pmol/L
- fT4 (males, total dose 3 mg/kg bw): 25.4 pmol/L
- TSH (males, total dose 10 mg/kg bw): 0.057 µIU/ml
- fT3 (males, total dose 10 mg/kg bw): 5.58 pmol/L
- fT4 (males, total dose 10 mg/kg bw): 28.4 pmol/L
- TSH (males, total dose 30 mg/kg bw): 0.059 µIU/ml
- fT3 (males, total dose 30 mg/kg bw): 5.77 pmol/L
- fT4 (males, total dose 30 mg/kg bw): 27.2 pmol/L
- TSH (males, total dose 100 mg/kg bw): 0.089 µIU/ml
- fT3 (males, total dose 100 mg/kg bw): 5.39 pmol/L
- fT4 (males, total dose 100 mg/kg bw): 21.7 pmol/L
- TSH (males, total dose 300 mg/kg bw): 0.075 µIU/ml
- fT3 (males, total dose 300 mg/kg bw): 5.24 pmol/L
- fT4 (males, total dose 300 mg/kg bw): 17.6 pmol/L
- TSH [25]: 0.100 µIU/ml
- fT3 [25]: 4.21 pmol/L
- fT4 [25]: 11.7 pmol/L
- TSH [26]: 0.137 µIU/ml
- fT3 [26]: 4.41 pmol/L
- fT4 [26]: 8.71 pmol/L
